US20030021763A1, “Method for the treatment and/or prophylaxis of diseases caused by IL-12” (Gruenenthal GmbH., priority 1999, published 2003)
Several values for one entry are separate records, joined by “and”; a condition that tells them apart may be missing. Equal values may be shown once.

Test system: IL-12 production of LPS-activated monocytes
Assay: Stimulation of human monocytes with lipopolysaccharide to secrete IL-12 (IL-12 sandwich ELISA of culture supernatants)
Format: cell-based
Details: for inhibition at 0.05 µg/mL / inhibition at 0.5 µg/mL / inhibition at 5 µg/mL: Homo sapiens, Monocyte, read-out: % inhibition of the IL-12 production of the control without inhibitors; for inhibition at 0.05 µg/mL / inhibition at 0.5 µg/mL / inhibition at 5 µg/mL / % inhibition of the IL-12 production of the control without inhibitors / IL-12 production: LPS 20 μg/ml, 24 hours; for action on the IL-12 production of LPS-stimulated monocytes: Tables 2 to 4
Procedure: Stimulation of Human Monocytes with Lipopolysaccharide to Secrete IL-12
Human monocytes were isolated from peripheral blood mononuclear cells (PBMC) which had been obtained from heparinized full blood by a Ficoll density gradient centrifugation. To that end, the PBMC were incubated with a monoclonal antibody directed against the monocyte-specific surface molecule CD14 and to which superparamagnetic microbeads (Miltenyi Biotech, Bergisch Gladbach) were coupled. For the positive selection of the labelled monocytes from the PBMC cell mixture, the total cell suspension was applied to a column having a ferromagnetic carrier matrix, and the column was placed in a magnetic field. The cells charged with microbeads were thus bonded to the carrier matrix, while unlabelled cells passed through the column and were discarded. After removing the matrix from the magnetic field, the antibody-charged cells were eluted by flushing the now demagnetised column with buffer. The purity of the resulting CD14-positive monocyte population was approximately from 95 to 98%. The monocytes were incubated for one hour at 37° C. and 5% CO2 in a density of 10^6cells/ml culture medium (RPMI, supplemented with 10% foetal calf serum) with the test substances dissolved in DMSO. 20 μg/ml of LPS from E. coli were then added. After 24 hours, cell-free culture supernatants were collected and tested for their IL-12 content.
The concentration of IL-12 in the cell culture supernatants was determined by sandwich ELISA's using two anti-IL-12 monoclonal antibodies (Biosource Europe, Fleurus, Belgium). A reference standard curve with human IL-12 was included. The detection limit of the IL-12 ELISA was 10 pg/ml.

[1] = test substance 0.05 μg/ml, IL-10 0 pg/ml
[2] = test substance 0.5 μg/ml, IL-10 0 pg/ml
[3] = test substance 5 μg/ml, IL-10 0 pg/ml
[4] = test substance 0.05 μg/ml combined with IL-10 5 pg/ml
[5] = test substance 0.05 μg/ml combined with IL-10 50 pg/ml
[6] = test substance 0.5 μg/ml combined with IL-10 5 pg/ml
[7] = test substance 0.5 μg/ml combined with IL-10 50 pg/ml
[8] = test substance 5 μg/ml combined with IL-10 5 pg/ml
[9] = test substance 5 μg/ml combined with IL-10 50 pg/ml
[10] = test substance 0.005 μg/ml combined with IL-10 5 pg/ml
[11] = test substance 0.005 μg/ml combined with IL-10 50 pg/ml
[12] = test substance 0.005 μg/ml, IL-10 0 pg/ml

Molecule	inhibition at 0.05 µg/mL [1]	inhibition at 0.5 µg/mL [2]	inhibition at 5 µg/mL [3]	action on the IL-12 production of LPS-stimulated monocytes	% inhibition of the IL-12 production of the control without inhibitors [4]	IL-12 production [4]	% inhibition of the IL-12 production of the control without inhibitors [5]	IL-12 production [5]	IL-12 production [1]	% inhibition of the IL-12 production of the control without inhibitors [6]	IL-12 production [6]	% inhibition of the IL-12 production of the control without inhibitors [7]	IL-12 production [7]	IL-12 production [2]	% inhibition of the IL-12 production of the control without inhibitors [8]	IL-12 production [8]	% inhibition of the IL-12 production of the control without inhibitors [9]	IL-12 production [9]	IL-12 production [3]	further results
O=C1CCC(N2Cc3ccccc3C2=O)C(=O)N1 (centres unmarked) [EM 12, 3-(1-oxo-1,3-dihydro-isoindol-2-yl)-piperidine-2,6-dione]	47%	68%	66%	dose-dependent inhibitory action	55%	2944 pg/mL	91%	589 pg/mL	3478 pg/mL	78%	1462 pg/mL	90%	649 pg/mL	2098 pg/mL	81%	1271 pg/mL	92%	546 pg/mL	2220 pg/mL	–
CC1(N2C(=O)c3ccccc3C2=O)CCC(=O)NC1=O (stereo not drawn) [EM 978, α-methyl thalidomide]	–	–	–	dose-dependent inhibitory action	61%	1897 pg/mL	68%	1555 pg/mL	3161 pg/mL	94%	272 pg/mL	96%	191 pg/mL	439 pg/mL	–	–	–	–	–	% inhibition of the IL-12 production of the control without inhibitors [10]: 40%; IL-12 production [10]: 2922 pg/mL; % inhibition of the IL-12 production of the control without inhibitors [11]: 53%; IL-12 production [11]: 2302 pg/mL; % inhibition of the IL-12 production of the control without inhibitors [12]: 7%; IL-12 production [12]: 4571 pg/mL; % inhibition of the IL-12 production of the control without inhibitors [1]: 35%; % inhibition of the IL-12 production of the control without inhibitors [2]: 91%; concentration lower than in the case of thalidomide or EM 12 to achieve the same effects (versus thalidomide or EM 12): 10 times lower
O=C1CCC(N2C(=O)c3ccccc3C2=O)C(=O)N1 (centres unmarked) [Thalidomide, 2-(2,6-dioxo-piperidin-3-yl)-isoindole-1,3-dione, reference compound]	45%	67%	76%	dose-dependent inhibitory action	68%	1958 pg/mL	87%	809 pg/mL	3369 pg/mL	81%	1147 pg/mL	90%	618 pg/mL	2037 pg/mL	83%	1057 pg/mL	93%	447 pg/mL	1481 pg/mL	–
IL-10: anti-inflammatory cytokine originally described as cytokine synthesis inhibitory factor	–	–	–	dose-dependent inhibitory action	–	–	–	–	–	–	–	–	–	–	–	–	–	–	–	EC50: 0.05 ng/mL; IL-12 production (IL-10 5 pg/ml alone (thalidomide compound 0 μg/ml)): 5637 pg/mL and 4393 pg/mL and 4581 pg/mL; % inhibition of the IL-12 production of the control without inhibitors (IL-10 50 pg/ml alone (thalidomide compound 0 μg/ml)): 58% and 47% and 81%
